Source: US8647824B2, “Microbial reductive dehalogenation of vinyl chloride” (The Board of Trustees of the Leland Stanford Junior …, priority 2004, dated 2014)

Legend:
[1] = tested on: highly enriched culture of strain VS; details: previously determined; cited from earlier work
[2] = tested on: Dehalococcoides ethenogenes strain 195; test: Batch dechlorination, D. ethenogenes strain 195 culture; assay type: cell-based; details: cultures supplied with VC or DCE
Text: Stock cultures. The Victoria mixed culture, containing strain VS, was maintained in a closed continuously stirred tank reactor (CSTR) as previously described. A VC enrichment of this culture, maintained over 5 years, was also used in these investigations. Liquid cultures of the three other cultures evaluated (Pinellas, KB-1/VC, and Dehalococcoides ethenogenes strain 195) were kept in anaerobic bottles, stored in an anaerobic chamber (10% H2, 10% CO2, 80% N2). The bottles were amended with TCE (1-3 μL neat liquid), VC (250 μL gas), and PCE (1-3 μL neat liquid) being added to each, respectively, approximately every two weeks.
Batch studies. For the experimental portion of this research, two studies were undertaken, one a comparative VC growth study, and the other a comparative growth and substrate utilization study with different chlorinated ethenes. These studies compared the dechlorination abilities of Dehalococcoides ethenogenes strain 195 and the Dehalococcoides-like microorganisms in the three mixed cultures (Victoria, KB-1/VC, and Pinellas).
For the first study, a VC enriched inoculum was first developed for each of the three mixed cultures. Here, bottles (120 mL) were filled with 60 mL of anaerobic media in an anaerobic chamber as previously described, and inoculated with 200 μL of each stock culture. Gaseous VC (99.5%) was added with a gas tight syringe (200 μL). […]

[3] = target: T1, TCE-reductive dehalogenase (TceA) (Dehalococcoides mccartyi, UniProt Q3ZAB8); details: TceA of D. ethenogenes 195; cited from earlier work
T1 sequence (Q3ZAB8 43-554): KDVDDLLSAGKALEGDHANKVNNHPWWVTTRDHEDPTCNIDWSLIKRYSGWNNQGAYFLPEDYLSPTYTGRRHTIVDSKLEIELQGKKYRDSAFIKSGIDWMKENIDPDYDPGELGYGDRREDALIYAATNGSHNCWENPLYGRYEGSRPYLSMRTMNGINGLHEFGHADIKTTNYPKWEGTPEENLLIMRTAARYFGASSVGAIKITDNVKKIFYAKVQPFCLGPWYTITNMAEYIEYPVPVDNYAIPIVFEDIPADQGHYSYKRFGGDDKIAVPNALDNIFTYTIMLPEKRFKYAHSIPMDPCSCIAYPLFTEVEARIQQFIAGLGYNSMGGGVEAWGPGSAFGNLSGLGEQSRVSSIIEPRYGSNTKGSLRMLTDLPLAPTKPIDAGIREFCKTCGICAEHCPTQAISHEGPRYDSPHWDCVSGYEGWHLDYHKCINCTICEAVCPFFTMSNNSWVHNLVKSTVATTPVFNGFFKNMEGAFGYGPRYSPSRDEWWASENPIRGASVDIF

C=CCl [VC, vinyl chloride]
strain VS maximum VC utilization rate [1]: 7.8×10^−10 μmol Cl^− (cell·d)^−1
dechlorination by D. ethenogenes strain 195 [2]: did not dechlorinate
VC-reduction rate relative to activity of TCE- and cDCE-reduction [3]: less than 1%
